Results: patent US20220364056A1, “SHORT-CHAIN FATTY ACID PENTANOATE AS ENHANCER FOR CELLULAR THERAPY AND ANTI-TUMOR THERAPY” (PHILIPPS-UNIVERSITÄT MARBURG, priority 2019, published 2022)

Tests used:
[1] = tested on: CD8+ cytotoxic T lymphocytes (CTLs); assay: murine CTLs cultivated under suboptimal conditions with SCFAs; cytokines and effector molecules by flow cytometry and ELISA; format: cell-based
Description: It is known that the glycolytic metabolic pathway promotes IFN-γ expression and T cell effector function. […] We next investigated if acetylation of H4 was increased at CTL-characteristic loci (Ifnγ, Tbx21 and Eomes) after treatment of CTLs with pentanoate. […] Due to the high level of heterogeneity and plasticity within T lymphocytes, we next investigated possible effects of pentanoate on other CD8^+ T cell subtypes. […] To gain further insight into possible therapeutic strategies, we next investigated the impact of pentanoate on human CD8^+ T lymphocytes.
(A) Experimental design for the treatment of CTLs with the water-soluble fraction of intestinal content derived from SPF or GF mice. (B and C) Frequencies of IFN-γ- and TNF-α-producing CTLs treated with the extract from luminal content derived from indicated organs. Representative results of two experiments are shown (n=3). (D) ELISA was performed to measure the secretion of TNF-α by CLTs treated as shown in (A). (E) Quantitative measurement of total SCFA amounts in fecal samples of SPF and GF mice (n=5). (F and G) The percentage of IFN-γ^+ TNF-α^+ CTLs treated with the indicated SCFAs for three days (n=3, one of three independent experiments is shown). (H) The secretion of TNF-α from CTLs treated with SCFAs was determined by ELISA (n=3, one of two independent experiments is shown). (I) The fluorogenic HDAC assay was applied to measure the HDAC inhibitory activity of SCFAs on CTLs. The value for unstimulated CTLs was arbitrarily set to 1.0. Four independent experiments were performed. (J and K) Representative contour plots (J) and bar graphs (K) showing the frequency of IFN-γ+ and TNF-α+ cells after pentanoate (2 mM) or VPA (0.5 mM) administration. Three similar experiments were performed. (L and M) The frequency of Eomes- and T-bet-expressing CTLs treated with pentanoate (2 mM) or VPA (0.5 mM) for three days was analyzed by flow cytometry (n=4). (N) ChIP assay showing the acetylation of histone H4 at the promoter regions of Ifnγ and Eomes genes after 24 hours of treatment of CTLs with pentanoate. Data are from pooled chromatin of three mice.
Representative histogram plots (A) and bar graphs (B) are showing the frequency of Annexin V^+ cells. Three similar experiments were performed. (C) Representative effector molecule staining of CD8^+ T cells polarized under suboptimal CTL-inducing conditions, treated with pentanoate or TSA (10 nM Sigma-Aldrich) in presence of 2-DG (1 mM, Sigma-Aldrich) or rapamycin (100 nM, Sigma-Aldrich) for 3 days. Three independent experiments were performed. (D) Western blot analysis of H3Ac and H4Ac in CD8^+ T cells treated with SCFAs for 3 days. (E) Pan-H4Ac ChIP qPCR analysis for Tbx21 promoter accessibility in pentanoate-treated CTLs. Data are from pooled chromatin of three mice. (F and G) CD8^+ T cells isolated from WT and Tbx21^−/− mice were polarized under suboptimal CTL-inducing conditions in presence of increasing pentanoate concentrations. Representative contour plots (F) and bar graphs (G) show the frequency of IFN-γ+ and IL-17A^+ cells. Two similar experiments were performed. […]

[2] = tested on: PancOVA cells; assay: adoptive transfer of pretreated OT-I CTLs into mice bearing s.c. PancOVA tumors; format: in vivo
Description: We tested this hypothesis in two different subcutaneous (s.c.) tumor models. We injected s.c. B16OVA melanoma cells into CD45.2^+ mice and transferred either control or pentanoate-treated CD45.1^+ OT-I CTLs into recipient animals on day 5 after tumor injection. […] On day 10 after adoptive transfer of CTLs, we detected a higher number of pentanoate-treated cells expressing more effector cytokines TNF-α and IFN-γ in comparison to control OT-I CTLs in tumors, draining LNs and spleen (FIG. 2, E-G). Furthermore, the anti-tumor effects mediated by treatment of CTLs with pentanoate were tested in aggressive pancreatic tumors expressing OVA protein (OVA-expressing Panc02 cells, PancOVA). To this end, 1.5×10^6 PancOVA cells were injected s.c. into CD45.2^+ mice. […] One area of application is CAR therapy.
(A) Experimental design for the role of SCFAs in promoting anti-tumor immunity. (B-D) After three days of pre-treatment with pentanoate, CD45.1^+ OVA-specific CTLs were transferred intraperitoneally (i.p.) into CD45.2^+ mice bearing 5-days old B16OVA tumors. Tumor volume and tumor mass were analyzed (n=3 mice per group, one of three independent experiments is shown). […]
Tumor weight was determined on day 23 post tumor inoculation. […]

[3] = tested on: histones H3 and H4; assay: Western blot of H3Ac and H4Ac in CD8+ T cells; format: cell-based, murine; conditions: SCFAs for 3 days
Procedure: Representative histogram plots (A) and bar graphs (B) are showing the frequency of Annexin V^+ cells. Three similar experiments were performed. (C) Representative effector molecule staining of CD8^+ T cells polarized under suboptimal CTL-inducing conditions, treated with pentanoate or TSA (10 nM Sigma-Aldrich) in presence of 2-DG (1 mM, Sigma-Aldrich) or rapamycin (100 nM, Sigma-Aldrich) for 3 days. Three independent experiments were performed. (D) Western blot analysis of H3Ac and H4Ac in CD8^+ T cells treated with SCFAs for 3 days. (E) Pan-H4Ac ChIP qPCR analysis for Tbx21 promoter accessibility in pentanoate-treated CTLs. Data are from pooled chromatin of three mice. (F and G) CD8^+ T cells isolated from WT and Tbx21^−/− mice were polarized under suboptimal CTL-inducing conditions in presence of increasing pentanoate concentrations. Representative contour plots (F) and bar graphs (G) show the frequency of IFN-γ+ and IL-17A^+ cells. Two similar experiments were performed.

CCCCC(=O)O [pentanoate]
frequencies of TNF-α+ IFN-γ+ cells ([1]; CTLs, suboptimal conditions, SCFAs for three days): substantial increase | secretion of TNF-α by CTLs ([1]; ELISA, CTLs treated with SCFAs): substantial increase | secretion of IL-2 by CTLs ([1]; ELISA, indicated time points): robustly produced IL-2 in a prolonged manner | production of IFN-γ by T-bet-deficient CTLs ([1]; Tbx21-/- vs WT, increasing pentanoate concentrations): partially defective production | expression of TNF-α and IFN-γ in CTLs ([1]; pentanoate 2 mM or VPA 0.5 mM): potently enhanced | CTL-related transcription factors T-bet and Eomes in CD8+ T cells ([1]; pentanoate 2 mM or VPA 0.5 mM, three days): strongly induced | reversal of the effect on granzyme B+IFN-γ+ cells by rapamycin ([1]; rapamycin 100 nM co-treatment): could not be reversed | percentage of CD25+IFN-γ+ cells in in vitro generated CTLs ([1]; three days): strongly enhanced | percentages of granzyme B+IFN-γ+ CD8+ T cells ([1]; vs control CTLs, TSA 10 nM, 3 days): substantially enhanced | growth of PancOVA cells in recipient animals ([2]; 7.5×10^5 pentanoate-treated OT-I CD8+ T lymphocytes): completely eliminate the growth | persistence of transferred CTLs within draining LNs and spleen ([2]; day 23 after tumor inoculation): persistence of pentanoate-treated CTLs with high IFN-γ production | acetylation of histones H3 and H4 [3]: increased acetylation
